{
  "source": "patent US20110257110A1",
  "about": "“Composition comprising a glycoside of a mono- or diacylglycerol compound and an oil rich in n-3 polyunsaturated fatty acids, a method of producing the composition and use of the composition” (HYBEN VITAL LICENS APS, priority 2008, published 2011)",
  "key": {"[1]": {"test_system": "human peripheral blood leukocytes", "experiment": "chemiluminescence of peripheral blood leukocytes (oxidative burst response)", "type": "cell-based", "details": "fairly low concentrations", "source_text": "Chemiluminescence is a measure of oxidative burst response. […] As the actual tissue damage caused by inflammatory cells such as PMN's and monocytes/macrophages, through the release of proteolytic and hydrolytic enzymes as well as toxic reactive oxygen radicals are activated in the tissue and joints, the isolated compound should be a potent inhibitor of the oxidative burst response of the human peripheral blood polymorphonuclear leukocytes, the most important and abundant inflammatory cells. It is therefore believed that the glycosides of mono- or diacylglycerol compounds, especially GOPO, are responsible for the anti inflammatory effects of rose hip extracts."}, "[2]": {"details": "aqueous solutions as described in WO03/43613, storage; cited from earlier work"}, "mononuclear leucocytes": {"test_system": "mononuclear leucocytes", "details": "WO 03/043613 A1; cited from earlier work"}, "[3]": {"test_system": "polymorphonuclear leucocytes", "details": "WO 03/043613 A1; cited from earlier work"}},
  "data": [
    {"smiles": "CC/C=C\\C/C=C\\C/C=C\\CCCCCCCC(=O)OCC(CO[C@@H]1O[C@H](CO)[C@H](O)[C@H](O)[C@H]1O)OC(=O)CCCCCCC/C=C\\C/C=C\\C/C=C\\CC", "note": "(stereo partly drawn) [GOPO, 3-β-D-galactopyranosyloxy-2-(octadeca-9Z,12Z,15Z-trienoyloxy)propanyl octadeca-9Z,12Z,15Z-trienoate]", "values": [
      {"measurement": "chemiluminescence of human peripheral blood leukocytes", "setting": "[1]", "value": "inhibited"},
      {"measurement": "stability in aqueous solutions", "setting": "[2]", "value": "lack stability"},
      {"measurement": "chemotaxis of mononuclear leucocytes", "setting": "mononuclear leucocytes", "value": "alleviating"},
      {"measurement": "chemiluminescence of polymorphonuclear leucocytes", "setting": "[3]", "value": "alleviating"}
    ]}
  ]
}
